# Results as given in US20240417408A1, “SMALL MOLECULE INHIBITORS OF KRAS G12C MUTANT” (MERCK SHARP & DOHME CORP., priority 2021, published 2024).
# What was measured:
# [1] = target: T1, Recombinant KRAS G12C mutant protein (amino acids 1-169, SEQ ID NO: 1) (Homo sapiens, UniProt P01116, G12C); assay: Test Example 1: inhibitory activity on KRAS G12C nucleotide (GDP-GTP) exchange reaction in vitro; format: biochemical; details: BODIPY FL GDP-bound KRAS G12C incubated with compound at 25° C. for 1 hour, then SOS1 and GMPPNP, read-out: GNE IC50
# T1 construct: His6 (N); TEV protease site (ENLYFQG; named from own knowledge) (N); made in house; host or cells: E. coli
# T1 sequence (P01116 with tags, fused parts or gaps isoform P01116-2 G12C): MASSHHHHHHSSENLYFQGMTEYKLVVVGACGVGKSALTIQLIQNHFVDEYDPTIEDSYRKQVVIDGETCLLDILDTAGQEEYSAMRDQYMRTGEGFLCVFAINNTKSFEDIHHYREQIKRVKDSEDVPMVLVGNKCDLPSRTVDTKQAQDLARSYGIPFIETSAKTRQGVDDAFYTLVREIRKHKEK
# Procedure: Test Example 1: Evaluation of inhibitory activity of compounds on KRAS G12C nucleotide (GDP-GTP) exchange reaction in vitro
# Recombinant KRAS G12C mutant protein (amino acids 1-169, SEQ ID NO: 1) and cleaved recombinant SOS1 (amino acids 564-1049, SEQ ID NO:2) proteins were expressed in E. coli and purified by affinity chromatography.
# To prepare BODIPY FL GDP-bound KRAS G12C protein, 50 μM KRAS G12C protein was incubated with 0.5 mM BODIPY FL GDP in a loading buffer (20 mM Tris-HCl (pH 7.5), 50 mM NaCl, 1 mM DTT and 2.5 mM EDTA) for 1 hour on ice. After the incubation, MgCl2 was added to a final concentration of 10 mM, followed by incubation at room temperature for 30 minutes. The mixture was allowed to pass through a NAP-5 column to remove free nucleotides and purified BODIPY FL GDP-bound KRAS G12C protein was used for compound evaluation.
# For the measurement of the inhibitory activity of compounds on GDP-GTP exchange rate of recombinant KRAS G12C, BODIPY FL GDP-bound KRAS G12C protein was incubated with various concentrations of compound in a reaction buffer (20 mM Tris-HCl (pH 7.5), 100 mM NaCl, 1 mM MgCl2, 2 mM DTT, 0.1% Tween 20) at 25° C. for 1 hour. After the incubation, recombinant SOS1 and Guanosine-5′-[(β,γ)-imido]triphosphate, Tetralithium salt (GMPPNP) (Jena Bioscience GmbH) were added and incubated at room temperature for 30 minutes to proceed SOS1-dependent GDP-GTP exchange reaction on KRAS G12C. Replacement of BODIPY FL GDP by GMPPNP was measured by calculating the ratio of fluorescence intensities of BODIPY FL before and after the exchange reaction. Inhibition % was calculated by setting the fluorescence ratio from the reaction without test compound (DMSO control) and the fluorescence ratio from the reaction without SOS1 and GMPPNP as 0% and 100% inhibition, respectively. IC50 values were calculated from dose titration curve using curve fitting by XLfit software (IDBS).
# MIA PaCa-2 cells = assay: Test Example 3: growth inhibition activity on KRAS-G12C mutant cell line (MIA PaCa-2); format: cell-based; details: Homo sapiens, 72 h, MIA PaCa-2, 3-day culture, CellTiter-Glo 3D, read-out: CTX MiaPaCa IC50
# Procedure: Test Example 3: Assay of Growth Inhibition Activity on KRAS-G12C Mutant Cell Line (MIA PaCa-2) (In Vitro)
# MIA PaCa-2 cells (provided by Sumitomo Dainippon Pharma Co., Ltd.), which are a KRAS-G12C mutant human pancreas cancer cell line, were suspended in a 10% fetal bovine serum-containing RPMI1640 medium (manufactured by Fujifilm Wako Pure Chemical Corporation.). The cell suspension was seeded into each well of a 384-well U bottom microplate and cultured in an incubator containing 5% CO2 gas at 37° C. for 1 day. The compounds obtained in the Examples section were used as test compounds and were dissolved in DMSO, respectively, and each test compound was diluted with DMSO to give a concentration 500 times the final concentration. The resultant solution of the test compound in DMSO was diluted with the medium used for suspending cells and added to each well of the cell-culture plate to give a DMSO final concentration of 0.2%, followed by culture in an incubator containing 5% CO2 gas at 37° C. for another 3 days. The cell count after 3-day culture in the presence of the test compound was measured using CellTiter-Glo 3D Reagent (manufactured by Promega Corporation). To all cells were added with CellTiter-Glo 3D Reagent and mixed for 10 minutes. 30 minutes after mixing, luminescence was measured by a plate reader. The growth inhibition rate was calculated from the following equation, and the concentration of the test compound at which 50% inhibition was achieved (IC50 (nM)) was determined.
# [formula] • T: the emission intensity in a well into which a test compound was added. • C: the emission intensity in a well into which a test compound was not added.
# [2] = target: T2, interaction between KRAS G12C and cRAF-RBD (Homo sapiens, UniProt P01116, G12C); assay: Test Example 2: inhibitory activity on interaction between KRAS G12C and cRAF (Alpha technology); format: binding; details: GMPPNP-bound KRAS G12C incubated with compound at 25° C. for 1 hour, then cRAF-RBD
# T2 construct: TEV protease site (ENLYFQG); made in house; host or cells: E. coli
# T2 sequence (P01116 with tags, fused parts or gaps isoform P01116-2 G12C): as above
# Procedure: Test Example 2: Evaluation of Inhibitory Activity of Compounds on Interaction Between KRAS G12C and cRAF (In Vitro)
# Interaction between recombinant KRAS G12C mutant protein (SEQ ID NO: 1) and cRAF RAS-binding domain (cRAF-RBD, amino acids 50-132, Jena Biosciences GmbH) was measured using Alpha technology (PerkinElmer Inc.).
# Recombinant KRAS G12C protein with an N-terminal His-tag was expressed in E. coli and purified by affinity chromatography. To prepare GTP-bound form and GDP-bound form of KRAS G12C protein, 50 μM KRAS G12C protein was incubated with 1 mM GMPPNP (Jena Bioscience GmbH) and 1 mM GDP, respectively, in a loading buffer (20 mM Tris-HCl (pH 7.5), 50 mM NaCl, 1 mM DTT and 2.5 mM EDTA) for 1 hour on ice. After the incubation, MgCl2 was added to a final concentration of 10 mM, followed by incubation at room temperature for 30 minutes. The mixture was allowed to pass through a NAP-5 column to remove free nucleotides and purified, and the resultant nucleotide-bound KRAS G12C protein was used for compound evaluation.
# For the measurement of the inhibitory activity of compounds on interaction between KRAS G12C and cRAF-RBD, GMPPNP-bound KRAS G12C protein was incubated with various concentrations of compound in a reaction buffer (20 mM Tris-HCl (pH 7.5), 100 mM NaCl, 1 mM MgCl2, 1 mM TCEP, 0.1% Tween 20) at 25° C. for 1 hour. After the incubation, recombinant cRAF-RBD and Alpha detection reagents were added and incubated at room temperature for 1.5 hours for binding. Interaction of KRAS G12C and cRAF-RBD was monitored by measuring Alpha signal. Inhibition % was calculated using the signal from the reaction without test compound (DMSO control) as 0% inhibition and the signal from the reaction using GDP-bound KRAS G12C in place of GMPPNP-bound KRAS G12C as 100% inhibition. IC50 values were calculated from dose titration curve using curve fitting by XLfit software (IDBS).
IC50 [1] [nM],IC50 (MIA PaCa-2 cells) [nM],IC50 [2] [nM],SMILES
3.53,111,43700,"CO[C@H]1CC[C@H](NC/C=C/C(=O)N2CCN(c3nc(OC[C@@H]4CCCN4C)nc4c3COC(c3cccc5ccccc35)C4)C[C@@H]2CC#N)CC1 (stereo partly drawn) [Example 2, 2-((2S)-1-((E)-4-(((1r,4S)-4-methoxycyclohexyl)amino)-but-2-enoyl)-4-(2-(((S)-1-methylpyrrolidin-2-yl)meth-oxy)-7-(naphthalen-1-yl)-7,8-dihydro-5H-pyrano[4,3-d]pyrimidin-4-yl)piperazin-2-yl)acetonitrile]"
5.22,100,11500,"CN1CCC[C@H]1COc1nc2c(c(N3CCN(C(=O)/C=C/CNC4CC5CCC(C4)O5)[C@@H](CC#N)C3)n1)COC(c1cccc3ccccc13)C2 (stereo partly drawn) [Example 3, 2-((2S)-1-((E)-4-((8-oxa-bicyclo[3.2.1]octan-3-yl)-amino)but-2-enoyl)-4-(2-(((S)-1-methylpyrrolidin-2-yl)methoxy)-7-(naphthalen-1-yl)-7,8-dihydro-5H-pyrano[4,3-d]pyrimidin-4-yl)piperazin-2-yl)acetonitrile]"
7.19,333,9580,"COC1CCN(C/C=C/C(=O)N2CCN(c3nc(OC[C@@H]4CCCN4C)nc4c3COC(c3cccc5ccccc35)C4)C[C@@H]2CC#N)CC1 (stereo partly drawn) [Example 4, 2-((2S)-1-((E)-4-(4-methoxy-piperidin-1-yl)but-2-enoyl)-4-(2-(((S)-1-methylpyrroli-din-2-yl)methoxy)-7-(naph-thalen-1-yl)-7,8-dihydro-5H-pyrano[4,3-d]pyrimidin-4-yl)piperazin-2-yl)acetonitrile]"
1.27,40.4,133,"C#Cc1cccc2cc(O)cc(C3Cc4nc(OC[C@@H]5CCCN5C)nc(N5CCN(C(=O)/C=C/CN[C@H]6CC[C@H](OC)CC6)[C@@H](CC#N)C5)c4CO3)c12 (stereo partly drawn) [Example 9, 2-((2S)-4-(7-(8-ethynyl-3-hydroxynaphthalen-1-yl)-2-(((S)-1-methylpyrrolidin-2-yl)methoxy)-7,8-dihydro-5H-pyrano[4,3-d]pyrimidin-4-yl)-1-((E)-4-(((1r,4S)-4-methoxycyclohexyl)amino)-but-2-enoyl)piperazin-2-yl)-acetonitrile]"

# Second part, the molecule before the results:
SMILES,IC50 [1] [nM],IC50 (MIA PaCa-2 cells) [nM],IC50 [2] [nM]
"C#Cc1cccc2cc(O)cc([C@@H]3Cc4nc(OCC5(CN6CCOCC6)CC5)nc(N5CCN(C(=O)/C=C/CN6CCC(OC)CC6)[C@@H](CC#N)C5)c4CO3)c12 [Example 1, 2-((S)-4-((S)-7-(8-ethynyl-3-hydroxynaphthalen-1-yl)-2-((1-(morpholinomethyl)cyclopropyl)methoxy)-7,8-dihydro-5H-pyrano[4,3-d]pyrimidin-4-yl)-1-((E)-4-(4-methoxypiperidin-1-yl)but-2-enoyl)piperazin-2-yl)acetonitrile]",1.02,7.15,25.4
"COC1CCN(C/C=C/C(=O)N2CCN(c3nc(OC[C@@H]4CCCN4C)nc4c3COC(c3cccc5cccc(Br)c35)C4)C[C@@H]2CC#N)CC1 (stereo partly drawn) [Example 5, 2-((2S)-4-(7-(8-bromonaph-thalen-1-yl)-2-(((S)-1-meth-ylpyrrolidin-2-yl)methoxy)-7,8-dihydro-5H-pyrano[4,3-d]pyrimidin-4-yl)-1-((E)-4-(4-methoxypiperidin-1-yl)-but-2-enoyl)piperazin-2-yl)-acetonitrile]",2.63,177,2820
"C#Cc1cccc2cccc(C3Cc4nc(OCC5(CN6CCOCC6)CC5)nc(N5CCN(C(=O)/C=C/CN6CCC(OC)CC6)[C@@H](CC#N)C5)c4CO3)c12 (stereo partly drawn) [Example 6, 2-((2S)-4-(7-(8-ethynylnaph-thalen-1-yl)-2-((1-(morpho-linomethyl)cyclopropyl)-methoxy)-7,8-dihydro-5H-pyrano[4,3-d]pyrimidin-4-yl)-1-((E)-4-(4-methoxy-piperidin-1-yl)but-2-enoyl)-piperazin-2-yl)acetonitrile]",15.4,268,1260
"C#Cc1cccc2cc(O)cc([C@@H]3Cc4nc(OC[C@@H]5CCCN5C)nc(N5CCN(C(=O)/C=C/CN6CCC(OC)CC6)[C@@H](CC#N)C5)c4CO3)c12 [Example 7, 2-((S)-4-((S)-7-(8-ethynyl-3-hydroxynaphthalen-1-yl)-2-(((S)-1-methylpyrrolidin-2-yl)methoxy)-7,8-dihydro-5H-pyrano[4,3-d]pyrimidin-4-yl)-1-((E)-4-(4-methoxy-piperidin-1-yl)but-2-enoyl)-piperazin-2-yl)acetonitrile]",0.88,4.36,50.6
"C#Cc1cccc2cc(O)cc([C@@H]3Cc4nc(OC[C@@H]5CCCN5C)nc(N5CCN(C(=O)/C=C/CN[C@H]6CC[C@H](OC)CC6)[C@@H](CC#N)C5)c4CO3)c12 [Example 8, 2-((S)-4-((S)-7-(8-ethynyl-3-hydroxynaphthalen-1-yl)-2-(((S)-1-methylpyrrolidin-2-yl)methoxy)-7,8-dihydro-5H-pyrano[4,3-d]pyrimidin-4-yl)-1-((E)-4-(((1r,4S)-4-methoxycyclohexyl)amino)-but-2-enoyl)piperazin-2-yl)-acetonitrile]",0.54,6.4,64.4
"COC1CCN(C/C=C/C(=O)N2CCN(c3nc(OC[C@@H]4CCCN4C)nc4c3CO[C@H](c3cc(O)cc5cccc(Br)c35)C4)C[C@@H]2CC#N)CC1 [Example 10, 2-((S)-4-((S)-7-(8-bromo-3-hydroxynaphthalen-1-yl)-2-(((S)-1-methylpyrrolidin-2-yl)methoxy)-7,8-dihydro-5H-pyrano[4,3-d]pyrimidin-4-yl)-1-((E)-4-(4-methoxy-piperidin-1-yl)but-2-enoyl)-piperazin-2-yl)acetonitrile]",0.73,10.1,107
